Source: patent US20040068005A1, “Pharmaceutical combinations” (priority 2000, published 2004)

Experiments:
Type in all cases: in vivo, New Zealand white rabbits
normal conscious rabbits [1] = assay: Ventricular pacing-induced myocardial ischaemia (ST-segment elevation), normal rabbits; settings: for intracavitary ST-segment elevation / anti-ischaemic effect of combination with nitroglycerin: normal conscious rabbits; for intracavitary ST-segment elevation: drug alone; for anti-ischaemic effect of combination with nitroglycerin: nitroglycerin combined with the drug; for ST-segment elevation: normal rabbit
Procedure: (§1) The experiments are carried out with adult, male New Zealand white rabbits, weighing 3.0-3.5 kg, housed as described in Am. […] Physiol, 35: H2033-H2041 and J. Moll Cell.. Cardiol.
(§2) The induction of global myocardial ischaemia was based on a method described as above.

[2] = system: hypercholesterolaemic, insulin resistant conscious rabbits; assay: Hyperinsulinaemic euglycaemic glucose clamping (insulin sensitivity), hypercholesterolaemic rabbits; settings: for Glucose infusion rate / M values of hyperinsulinaemic and euglycaemic glucose clamping / synergism (increased effectivity) on glycaemic control: hypercholesterolaemic; for Glucose infusion rate: insulin resistant rabbit; for synergism (increased effectivity) on glycaemic control: drug combined with nitroglycerin; for Insulin sensitivity: percent of means, control = 100
Procedure: as §1
(§3) To estimate insulin sensitivity and/or insulin resistance, hyperinsulinaemic (100 eU/ml) euglycaemic (5.5 mM/l) glucose clamping was used. The glucose clamping values (M) were established as values of glucose infusion rates expressed in mg/kg/min to maintain blood glucose level at 5.5 mM/l.

normal conscious rabbits [3] = assay: Hyperinsulinaemic euglycaemic glucose clamping (insulin sensitivity), normal rabbits; settings: for Glucose infusion rate: normal rabbit; for M values of hyperinsulinaemic and euglycaemic glucose clamping: normal rabbits
Procedure: (§4) The experiments are carried out with adult, male New Zealand white rabbits, weighing 3.0-3.5 kg, housed as described in Am. J. Physiol 1994, Heart Circ. Physiol, 35: H2033-H2041 and J. Moll Cell.. Cardiol. 1997, 29: 1977-1983.
as §3

[4] = system: streptozotocin diabetic rabbits; assay: Femoral nerve conduction velocity, streptozotocin diabetes; settings: for Nerve conduction velocity: femoral “C” fibers, streptozotocin diabetic rabbit; for nerve conduction in “C” fibres: streptozotocin-diabetes model, drug alone, nitroglycerin 12-h patch on vs 12-h patch off over three days
Procedure: as §4
These series of experiments were carried out to verify/exclude sensory neuropathy. Left saphenous nerve conduction velocity was determined as described in Eur J. Pharmacol 1999, 386:83-88.
Streptozotocin (40 mg/kg i.v.) produced a decrease in nerve conduction velocity in femoral “A” and “C” fibres, respectively, as determined 8 weeks after streptozotocin injection. […] The combination of any of these drugs with nitroglycerin yielded an improvement of conduction velocity in streptozotocin-diabetic aminals similar to that seen with nitroglycerin alone.

[5] = system: hypercholesterolaemic, insulin resistant conscious rabbits; assay: Ventricular pacing-induced myocardial ischaemia (ST-segment elevation), hypercholesterolaemic rabbits; settings: for ST-segment elevation / intracavitary ST-segment elevation / ischaemic changes produced by VOP: hypercholesterolaemic; for ST-segment elevation: insulin resistant rabbit; for intracavitary ST-segment elevation / ischaemic changes produced by VOP: insulin resistant rabbits, drug alone
Procedure: as §1, §2

[6] = system: hypercholesterolaemic, insulin resistant rabbits; assay: Femoral nerve conduction velocity, hyperlipidaemia-induced insulin resistance; settings: femoral “C” fibers, hypercholesterolaemic, insulin resistant rabbit
Procedure: as §1
These series of experiments were carried out to verify/exclude sensory neuropathy.

[7] = placebo patch, troglitazon 70 mg/kg p.os, metformin 5 mg/kg i.v., glibenclamide 1 mg/kg i.v., idazoxan 2 mg/kg i.v.
[8] = with active patch (nitroglycerin 0.07 mg/kg/h), alone (Control) or with the drug
[9] = with active patch (nitroglycerin 0.07 mg/kg/h), alone (Control) or together with the drug, same doses
[10] = insulin resistant rabbits, in the presence of nitroglycerin and the drug, compared to the placebo patch group
[11] = placebo patch, troglitazon 70 mg/kg p.os, metformin 5 mg/kg i.v., glibenclamide 1 mg/kg i.v., idazoxan 2 mg/kg i.v., mean
[12] = with active patch (nitroglycerin 0.07 mg/kg/h), alone (Control) or together with the drug, troglitazon 70 mg/kg p.os, metformin 5 mg/kg i.v., glibenclamide 1 mg/kg i.v., idazoxan 2 mg/kg i.v.
[13] = drug alone, troglitazon 70 mg/kg/day p. os over 3 days, metformin 5 mg/kg/day i.v. over 3 days, glibenclamide 1 mg/kg i.v., idazoxan 2 mg/kg i.v.
[14] = placebo patch, troglitazon 70 mg/kg p.os, metformin 5 mg/kg i.v., glibenclamide 1 mg/kg i.v., idazoxan 2 mg/kg i.v., healthy untreated 6.2
[15] = metformin 100 mg/kg p.os, ISMN controlled release 5 mg/kg p.os
[16] = nitroglycerin patch 0.07 mg/kg/h, metformin 5 mg/kg i.v., troglitazon 70 mg/kg p.os

Row | Structure (SMILES) | intracavitary ST-segment elevation (normal conscious rabbits [1]) | anti-ischaemic effect of combination with nitroglycerin (normal conscious rabbits [1]) | ST-segment elevation (normal conscious rabbits [1]; [7]) [mV] | ST-segment elevation (normal conscious rabbits [1]; [8]) [mV] | Glucose infusion rate [2, 7] [mg/kg/min] | Glucose infusion rate [2, 9] [mg/kg/min] | M values of hyperinsulinaemic and euglycaemic glucose clamping [2, 10] | synergism (increased effectivity) on glycaemic control ([2]; insulin resistant rabbits) | Glucose infusion rate (normal conscious rabbits [3]; [11]) [mg/kg/min] | Glucose infusion rate (normal conscious rabbits [3]; [12]) [mg/kg/min] | M values of hyperinsulinaemic and euglycaemic glucose clamping (normal conscious rabbits [3]; [13]) | Nerve conduction velocity [4, 14] [dm/s] | Nerve conduction velocity [4, 8] [dm/s] | nerve conduction in “C” fibres [4] | ST-segment elevation ([5]; placebo patch, same doses) [mV] | ST-segment elevation [5, 8] [mV] | intracavitary ST-segment elevation / ischaemic changes produced by VOP [5] | Insulin sensitivity [2, 16] [%] | other results
1 | COc1ccc(Cl)cc1C(=O)NCCc1ccc(S(=O)(=O)NC(=O)NC2CCCCC2)cc1 [Glibenclamide, glibenclamide] | without effect | anti-ischaemic effect similar to that produced by nitroglyc erin alone | 1.4 ± 0.08 | 0.8 ± 0.08 | 8.833 | 12.333 | significantly increased | synergism | 14.667 | 16.500 | without effect | 2.9 ± 0.24 | 3.6 ± 0.2 | Neither troglitazon,nor glibenclamide, idazoxan or metformin produced any effect | 1.9 ± 0.40 | 1.5 ± 0.13 | without effect |  | 
2 | c1ccc2c(c1)OCC(C1=NCCN1)O2 (centres unmarked) [Idazoxan, idazoxane] |  | anti-ischaemic effect similar to that produced by nitroglyc erin alone | 1.4 ± 0.05 | 0.8 ± 0.09 | 8.500 | 12.833 | significantly increased | synergism | 14.667 | 16.000 | without effect | 2.8 ± 0.26 | 3.4 ± 0.2 | Neither troglitazon,nor glibenclamide, idazoxan or metformin produced any effect | 2.3 ± 0.50 | 1.8 ± 0.16 | aggravated ischaemic changes |  | ventricular extrasystoles on VOP ([5]; insulin resistant animals, idazoxan 2 mg/kg i.v.): VOP induced ventricular extrasystolesin the insulin resistant animals
3 | CN(C)C(=N)N=C(N)N [Metformin, metformine] | without effect | anti-ischaemic effect similar to that produced by nitroglyc erin alone | 1.4 ± 0.08 | 0.8 ± 0.10 | 10.833 | 14.500 | significantly increased |  | 15.667 | 19.833 | without effect | 3.1 ± 0.2 | 3.6 ± 0.2 | Neither troglitazon,nor glibenclamide, idazoxan or metformin produced any effect | 2.1 ± 0.13 | 1.5 ± 0.08 | without effect | 120.4 | Glucose infusion rate [2, 15]: 11.70 ± 1.0300 mg/kg/min; M values of hyperinsulinaemic and euglycaemic glucose clamping ([2]; insulin resistant rabbits vs control, ISMN 5 mg/kg/day (Olicard 40), metformin 100 mg/kg/day p.os over 3 days): significant increase; Insulin sensitivity ([2]; ISMN controlled release 5 mg/kg p.os, metformin 100 mg/kg p.os): 120.6%; Glucose infusion rate (normal conscious rabbits [3]; [15]): 14.80 ± 0.0800 mg/kg/min; M values of hyperinsulinaemic and euglycaemic glucose clamping (normal conscious rabbits [3]; drug alone vs control, isosorbide-5-mononitrate 1 mg/kg/day (Olicard 40), metformin 100 mg/kg/day p.os over 3 days): without any effect; M values of hyperinsulinaemic and euglycaemic glucose clamping (normal conscious rabbits [3]; in the presence of transdermal nitroglycerin combined with the drug): significantly increased; M values of hyperinsulinaemic and euglycaemic glucose clamping (normal conscious rabbits [3]; metformin 100 mg/kg/day p.os in the presence of ISML (ISMN)): significant increase
4 | Cc1c(C)c2c(c(C)c1O)CCC(C)(COc1ccc(CC3SC(=O)NC3=O)cc1)O2 (centres unmarked) [Troglitazon, troglitazone] |  |  | 1.1 ± 0.08 | 0.7 ± 0.09 | 11.000 | 14.667 |  |  | 17.167 | 19.333 |  | 3.2 ± 0.3 | 3.6 ± 0.2 |  | 1.6 ± 0.12 | 1.08 ± 0.10 |  | 122.2 | Nerve conduction velocity ([6]; placebo patch, troglitazon 70 mg/kg p.os): 4.6 ± 0.4 dm/s; Nerve conduction velocity ([6]; with active patch (nitroglycerin 0.07 mg/kg/h), alone (Control) or with troglitazon 70 mg/kg p.os): 5.9 ± 0.2 dm/s
